Measured values taken from US20230123334A1, “AMINO LIPID COMPOUND, PREPARATION METHOD THEREFOR, AND APPLICATION THEREOF” (SHENZHEN SHENXIN BIOTECHNOLOGY CO., LTD., priority 2020, published 2023).

Test system: HEK293 cells
Test: Preliminary screening as mRNA vectors, EGFP mRNA transfection of HEK293 cells
Format: cell-based
Conditions: EGFP mRNA 50 ng per well, 96-well plates; percentage of GFP fluorescent cells relative to total number of cells (Hoechst)
Method: Cell line: HEK293 cells (ATCC CRL-1573™)
Medium: DMEM supplemented with 10% fetal bovine serum (Invitrogen)
Screening: cell transfection on 96-well plates
Detection (readout): percentage of the number of GFP fluorescent cells relative to the total number of cells (the total number of cells was determined using nucleus dye Hoechst). Lipofectamine2000 (Invitrogen) was used as the positive control.
Method: the experimental method was basically the same with Example 4, and the mass of EGFP mRNA (TriLink) for transfection was 50 ng per well.

Structure (SMILES): CCCCCCCCCCCCCCCCSc1nc(NCCN2CCN(C)CC2)nc(SCCCCCC)n1 [Compound D5S6S16]
- Absolute mRNA transfection efficiency in HEK293 cells: 60.5%

Structure (SMILES): CCCCCCCCCCCCCCCNc1nc(NCC2CCN(C)CC2)nc(SCCCCCCCCCC)n1 [Compound D10S10N15]
- Absolute mRNA transfection efficiency in HEK293 cells: 13.2%

Structure (SMILES): CCCCCCCCCCCCCCCCCCNc1nc(NCCCN2CCN(C)CC2)nc(SCCCCCCCCCCCCCCC)n1 [Compound D9S15N18]
- Absolute mRNA transfection efficiency in HEK293 cells: 0.3%

Structure (SMILES): CCCCCCCCCCCCCCSc1nc(NCCCCCCCCCCC)nc(NCCCN2CCN(C)CC2)n1 [Compound D9S14N11]
- Absolute mRNA transfection efficiency in HEK293 cells: 15.6%

Structure (SMILES): CCCCCCCCCCCNc1nc(NCCN2CCCC2)nc(SCCCCCCCCC)n1 [Compound D3S9N11]
- Absolute mRNA transfection efficiency in HEK293 cells: 47.8%

Structure (SMILES): CCCCCCCCCCCCSc1nc(NCCN2CCCCC2)nc(SCCCCCCC)n1 [Compound D4S7S12]
- Absolute mRNA transfection efficiency in HEK293 cells: 9.2%

Structure (SMILES): CCCCCCCCCCCCN(CCCCCCCCCCCC)c1nc(NCCN2CCN(C)CC2)nc(SCCCCCCC)n1 [D5S7^2N12]
- Absolute mRNA transfection efficiency in HEK293 cells: 0.2%

Structure (SMILES): CCCCCCCCCCCCCCCCSc1nc(NCCCCCCCCCCCC)nc(NCCN(CC)CC)n1 [Compound D7S16N12]
- Absolute mRNA transfection efficiency in HEK293 cells: 1.3%

Structure (SMILES): CCCCCCCCCCCCNc1nc(NCCN2CCN(C)CC2)nc(SCCCCCC)n1 [Compound D5S6N12]
- Absolute mRNA transfection efficiency in HEK293 cells: 4.4%

Structure (SMILES): CCCCCCCCCCCCCCCCCCNc1nc(NCCN2CCCCC2)nc(SCCCCCCCCC)n1 [Compound D4S9N18]
- Absolute mRNA transfection efficiency in HEK293 cells: 8.3%

Structure (SMILES): CCCCCCCCCCCCCCCCSc1nc(NCCCCCCCCC)nc(NCC2CCN(C)CC2)n1 [Compound D10S16N9]
- Absolute mRNA transfection efficiency in HEK293 cells: 49.2%

Structure (SMILES): CCCCCCCCCCCNc1nc(NCCN2CCCCC2)nc(SCCCCCCCCCC)n1 [Compound D4S10N11]
- Absolute mRNA transfection efficiency in HEK293 cells: 0.8%

Structure (SMILES): CCCCCCCCCCCCCCCNc1nc(NCCN2CCCC2)nc(SCCCCCCC)n1 [Compound D3S7N15]
- Absolute mRNA transfection efficiency in HEK293 cells: 33.7%

Structure (SMILES): CCCCCCCCCCCCN(CCCCCCCCCCCC)c1nc(NCCN2CCCC2)nc(SCCCCCCC)n1 [D3S7^2N12]
- Absolute mRNA transfection efficiency in HEK293 cells: 0.4%

Structure (SMILES): CCCCCCCCCCCCCCCSc1nc(NCCCN2CCOCC2)nc(SCCCCCCC)n1 [Compound D8S7S15]
- Absolute mRNA transfection efficiency in HEK293 cells: 25.2%

Structure (SMILES): CCCCCCCCCCSc1nc(NCCCCCCC)nc(NCCN2CCOCC2)n1 [Compound D2S10N7]
- Absolute mRNA transfection efficiency in HEK293 cells: 0.5%

Structure (SMILES): CCCCCCCCCCCCCCCNc1nc(NCCN2CCCCC2)nc(SCCCCCCC)n1 [Compound D4S7N15]
- Absolute mRNA transfection efficiency in HEK293 cells: 2.6%

Structure (SMILES): CCCCCCCCCCCCCCSc1nc(NCCCCCCCCC)nc(NCCCN2CCN(C)CC2)n1 [Compound D9S14N9]
- Absolute mRNA transfection efficiency in HEK293 cells: 23.7%

Structure (SMILES): CCCCCCSc1nc(NCCCN2CCOCC2)nc(SCCCCCC)n1 [Compound D8S6S6]
- Absolute mRNA transfection efficiency in HEK293 cells: 0.0%

Structure (SMILES): CCCCCCCCCCSc1nc(NCCCCCCCCC)nc(NCCN2CCN(C)CC2)n1 [Compound D5S10N9]
- Absolute mRNA transfection efficiency in HEK293 cells: 8.5%

Structure (SMILES): CCCCCCCCCCCCCCCCCCNc1nc(NCCCN2CCOCC2)nc(SCCCCCCCC)n1 [Compound D8S8N18]
- Absolute mRNA transfection efficiency in HEK293 cells: 1.2%

Structure (SMILES): CCCCCCCCCCCCCCCSc1nc(NCCCCCCCCC)nc(NCCN2CCOCC2)n1 [Compound D2S15N9]
- Absolute mRNA transfection efficiency in HEK293 cells: 1.1%

Structure (SMILES): CCCCCCCCCCCCSc1nc(NCCCCCCCCC)nc(NCCN(CC)CC)n1 [Compound D7S12N9]
- Absolute mRNA transfection efficiency in HEK293 cells: 7.4%

Structure (SMILES): CCCCCCCCCCCCCCCCNc1nc(NCCCN2CCOCC2)nc(SCCCCCCCCCC)n1 [Compound D8S10N16]
- Absolute mRNA transfection efficiency in HEK293 cells: 0.2%

Structure (SMILES): CCCCCCCCCCCCN(CCCCCCCCCCCC)c1nc(NCCCN2CCOCC2)nc(SCCCCCCCC)n1 [D8S8^2N12]
- Absolute mRNA transfection efficiency in HEK293 cells: 0.1%

Structure (SMILES): CCCCCCSc1nc(NCC2CCN(C)CC2)nc(SCCCCCC)n1 [Compound D10S6S6]
- Absolute mRNA transfection efficiency in HEK293 cells: 14.4%

Structure (SMILES): CCCCCCCCCCCCCCCSc1nc(NCCCCCCCCCCC)nc(NCCN(C)C)n1 [Compound D1S15N11]
- Absolute mRNA transfection efficiency in HEK293 cells: 11.9%

Structure (SMILES): CCCCCCCCCCCSc1nc(NCCCCCCC)nc(NCCN2CCN(C)CC2)n1 [Compound D5S11N7]
- Absolute mRNA transfection efficiency in HEK293 cells: 8.5%

Structure (SMILES): CCCCCCCCCCCCCCCCCCSc1nc(NCCN2CCCCC2)nc(SCCCCCC)n1 [Compound D4S6S18]
- Absolute mRNA transfection efficiency in HEK293 cells: 8.8%

Structure (SMILES): CCCCCCCCCCCCCCCCSc1nc(NCCCCCCCCC)nc(NCCN2CCOCC2)n1 [Compound D2S16N9]
- Absolute mRNA transfection efficiency in HEK293 cells: 7.2%

Structure (SMILES): CCCCCCCCSc1nc(NCCCN2CCN(C)CC2)nc(SCCCCCCC)n1 [Compound D9S7S8]
- Absolute mRNA transfection efficiency in HEK293 cells: 43.7%

Structure (SMILES): CCCCCCCCCCSc1nc(NCCCN2CCOCC2)nc(SCCCCCCCC)n1 [Compound D8S8S10]
- Absolute mRNA transfection efficiency in HEK293 cells: 40.9%

Structure (SMILES): CCCCCCCCCCCCCCCCNc1nc(NCCCN2CCN(C)CC2)nc(SCCCCCCCC)n1 [Compound D9S8N16]
- Absolute mRNA transfection efficiency in HEK293 cells: 21.2%

Structure (SMILES): CCCCCCCCCCCCCCCCSc1nc(NCCCCCCC)nc(NCCCN2CCN(C)CC2)n1 [Compound D9S16N7]
- Absolute mRNA transfection efficiency in HEK293 cells: 97.9%

Structure (SMILES): CCCCCCCCSc1nc(NCCCN2CCOCC2)nc(SCCCCCCC)n1 [Compound D8S7S8]
- Absolute mRNA transfection efficiency in HEK293 cells: 5.0%

Structure (SMILES): CCCCCCCCCCCCCCCCCCNc1nc(NCCCN(C)C)nc(SCCCCCCCC)n1 [Compound D6S8N18]
- Absolute mRNA transfection efficiency in HEK293 cells: 40.4%

Structure (SMILES): CCCCCCNc1nc(NCCN2CCOCC2)nc(SCCCCCC)n1 [Compound D2S6N6]
- Absolute mRNA transfection efficiency in HEK293 cells: 0.4%

Structure (SMILES): CCCCCCCCCCCNc1nc(NCC2CCN(C)CC2)nc(SCCCCCC)n1 [Compound D10S6N11]
- Absolute mRNA transfection efficiency in HEK293 cells: 4.0%

Structure (SMILES): CCCCCCCCCCCCCCCSc1nc(NCCCCCCC)nc(NCCN2CCCCC2)n1 [Compound D4S15N7]
- Absolute mRNA transfection efficiency in HEK293 cells: 1.2%

Structure (SMILES): CCCCCCCCCCCCCCCCCCSc1nc(NCCCN(C)C)nc(N(CCCCCCCCCCCC)CCCCCCCCCCCC)n1 [D6S18^2N12]
- Absolute mRNA transfection efficiency in HEK293 cells: 0.1%

Structure (SMILES): CCCCCCCCCCCCCCSc1nc(NCCCCCCCCCCC)nc(NCCN2CCCCC2)n1 [Compound D4S14N11]
- Absolute mRNA transfection efficiency in HEK293 cells: 3.8%

Structure (SMILES): CCCCCCCCCCCNc1nc(NCCCN(C)C)nc(SCCCCCCCCC)n1 [Compound D6S9N11]
- Absolute mRNA transfection efficiency in HEK293 cells: 58.8%

Structure (SMILES): CCCCCCCCCCCSc1nc(NCCCCCCCC)nc(NCCCN(C)C)n1 [Compound D6S11N8]
- Absolute mRNA transfection efficiency in HEK293 cells: 16.8%

Structure (SMILES): CCCCCCCSc1nc(NCCCCCC)nc(NCCCN2CCN(C)CC2)n1 [Compound D9S7N6]
- Absolute mRNA transfection efficiency in HEK293 cells: 0.8%

Structure (SMILES): CCCCCCCCCCCCCCCCNc1nc(NCCN2CCCC2)nc(SCCCCCC)n1 [Compound D3S6N16]
- Absolute mRNA transfection efficiency in HEK293 cells: 37.3%

Structure (SMILES): CCCCCCCCCCCCCCCNc1nc(NCCN2CCOCC2)nc(SCCCCCCC)n1 [Compound D2S7N15]
- Absolute mRNA transfection efficiency in HEK293 cells: 3.1%

Structure (SMILES): CCCCCCCCCCCCCCCCNc1nc(NCCCN(C)C)nc(SCCCCCC)n1 [Compound D6S6N16]
- Absolute mRNA transfection efficiency in HEK293 cells: 40.4%

Structure (SMILES): CCCCCCCCCCCCCCCCCCNc1nc(NCCN(CC)CC)nc(SCCCCCCCCCCCCCCCCCC)n1 [Compound D7S18N18]
- Absolute mRNA transfection efficiency in HEK293 cells: 0.0%

Structure (SMILES): CCCCCCCCCCCCSc1nc(NCCCCCC)nc(NCCN(C)C)n1 [Compound D1S12N6]
- Absolute mRNA transfection efficiency in HEK293 cells: 0.0%
